Data taken from patent publication US10112950B2, “Substituted imidazo[1,2-a]pyrazines as LSD1 inhibitors” (Incyte Corporation, priority 2014, dated 2018).
pIC50: −log10 of the molar value.

biological target: LSD-1 enzyme (Homo sapiens (Human), UniProt O60341); assay: LANCE LSD1/KDM1A demethylase assay (LSD1 histone demethylase biochemical assay); details: 1 nM LSD-1 enzyme, 1 hour preincubation at 25° C., 0.4 μM Biotin-labeled Histone H3 peptide substrate
Description: LSD1 Histone Demethylase Biochemical Assay
LANCE LSD1/KDM1A demethylase assay-10 μL of 1 nM LSD-1 enzyme (ENZO BML-SE544-0050) in the assay buffer (50 mM Tris, pH 7.5, 0.01% Tween-20, 25 mM NaCl, 5 mM DTT) were preincubated for 1 hour at 25° C. with 0.8 μL compound/DMSO dotted in black 384 well polystyrene plates. […] Reactions were stopped by addition of 10 μL 1× LANCE Detection Buffer (PerkinElmer CR97-100) supplemented with 1.5 nM Eu-anti-unmodified H3K4 Antibody (PerkinElmer TRF0404), and 225 nM LANCE Ultra Streptavidin (PerkinElmer TRF102) along with 0.9 mM Tranylcypromine-HCl (Millipore 616431). After stopping the reactions plates were incubated for 30 minutes and read on a PHERAstar FS plate reader (BMG Labtech).

Row | SMILES | pIC50
1 | CN1CCN(c2ccc(-c3c(-c4ccc(C#N)cc4)nc(N4CCC(N(C)C)CC4)c4nccn34)cn2)C1=O [Example 100, 4-{8-[4-(dimethylamino)piperidin-1-yl]-5-[6-(3-methyl-2-oxoimidazolidin-1-yl)pyridin-3-yl]imidazo[1,2-a]pyrazin-6-yl}benzonitrile] | ≥ 7.30
2 | CN(C)C1CCN(c2nc(-c3ccc(C#N)cc3)c(-c3ccc4nccnc4c3)n3ccnc23)CC1 [Example 101, 4-{8-[4-(dimethylamino)piperidin-1-yl]-5-quinoxalin-6-ylimidazo[1,2-a]pyrazin-6-yl}benzonitrile] | ≥ 7.30
3 | CN1C(=O)CCc2cc(-c3c(-c4ccc(C#N)cc4)nc(N4CCC(N(C)C)CC4)c4nccn34)ccc21 [Example 102, 4-[8-[4-(dimethylamino)piperidin-1-yl]-5-(1-methyl-2-oxo-1,2,3,4-tetrahydroquinolin-6-yl)imidazo[1,2-a]pyrazin-6-yl]benzonitrile] | ≥ 7.30
4 | CN(C)C1CCN(c2nc(-c3ccc(C#N)cc3)c(-c3cnc4c(c3)cc(CO)n4C)n3ccnc23)CC1 [Example 103, 4-{8-[4-(dimethylamino)piperidin-1-yl]-5-[2-(hydroxymethyl)-1-methyl-1H-pyrrolo[2,3-b]pyridin-5-yl]imidazo[1,2-a]pyrazin-6-yl}benzonitrile] | ≥ 7.30
5 | CCn1c(=O)oc2cc(-c3c(-c4ccc(C#N)cc4)nc(N4CCC(N(C)C)CC4)c4nccn34)cnc21 [Example 105, 4-[8-[4-(dimethylamino)piperidin-1-yl]-5-(3-ethyl-2-oxo-2,3-dihydro[1,3]oxazolo[4,5-b]pyridin-6-yl)imidazo[1,2-a]pyrazin-6-yl]benzonitrile] | ≥ 7.30
6 | CN(C)C1CCN(c2nc(-c3ccc(C#N)cc3)c(-c3ccc4c(c3)ncn4C)n3ccnc23)CC1 [Example 106, 4-[8-[4-(dimethylamino)piperidin-1-yl]-5-(1-methyl-1H-benzimidazol-5-yl)imidazo[1,2-a]pyrazin-6-yl]benzonitrile] | ≥ 7.30
7 | CN1C(=O)COc2cc(-c3c(-c4ccc(C#N)cc4)nc(N4CCC(N(C)C)CC4)c4nccn34)cnc21 [Example 107, 4-[8-[4-(dimethylamino)piperidin-1-yl]-5-(4-methyl-3-oxo-3,4-dihydro-2H-pyrido[3,2-b][1,4]oxazin-7-yl)imidazo[1,2-a]pyrazin-6-yl]benzonitrile] | ≥ 7.30
8 | CN1CCN(c2ccc(-c3c(-c4ccc(C#N)cc4)nc(N4CCC(N(C)C)CC4)c4nccn34)cn2)CC1=O [Example 109, 4-{8-[4-(dimethylamino)piperidin-1-yl]-5-[6-(4-methyl-3-oxopiperazin-1-yl)pyridin-3-yl]imidazo[1,2-a]pyrazin-6-yl}benzonitrile] | ≥ 7.30
9 | CN(C)C1CCN(c2nc(-c3ccc(C#N)cc3)c(-c3ccc4c(c3)c(CO)nn4C)n3ccnc23)CC1 [Example 110, 4-{8-[4-(dimethylamino)piperidin-1-yl]-5-[3-(hydroxymethyl)-1-methyl-1H-indazol-5-yl]imidazo[1,2-a]pyrazin-6-yl}benzonitrile] | ≥ 7.30
10 | CN1C(=O)Cc2cc(-c3c(-c4ccc(C#N)cc4)nc(N4CCC(N(C)C)CC4)c4nccn34)cnc21 [Example 111, 4-[8-[4-(dimethylamino)piperidin-1-yl]-5-(1-methyl-2-oxo-2,3-dihydro-1H-pyrrolo[2,3-b]pyridin-5-yl)imidazo[1,2-a]pyrazin-6-yl]benzonitrile] | ≥ 7.30
11 | CN(C)C1CCN(c2nc(-c3ccc(C#N)cc3)c(-c3cnc4c(ccn4C)c3)n3ccnc23)CC1 [Example 112, 4-[8-[4-(dimethylamino)piperidin-1-yl]-5-(1-methyl-1H-pyrrolo[2,3-b]pyridin-5-yl)imidazo[1,2-a]pyrazin-6-yl]benzonitrile] | ≥ 7.30
12 | C[C@@H](O)c1nc2cc(-c3c(-c4ccc(C#N)cc4)nc(N4CCC(N(C)C)CC4)c4nccn34)ccc2n1C [Example 113, 4-(8-[4-(dimethylamino)piperidin-1-yl]-5-{2-[(1R)-1-hydroxyethyl]-1-methyl-1H-benzimidazol-5-yl}imidazo[1,2-a]pyrazin-6-yl)benzonitrile] | ≥ 7.30
